In general, IC50 refers to the concentration at which inhibition is half-maximal.

The assay addresses human NaV 1.8 (Homo sapiens, UniProt Q9Y5Y9). Put plainly: E-VIPR Assay Detecting and Measuring NaV Inhibition Properties. Particulars: HEK cells expressing a truncated form of human NaV 1.8 with full channel activity; electrical stimulation, membrane potential FRET dyes; read-out: measured IC50 value in the E-VIPR Assay. Format: cell-based. The text has this: E-VIPR Assay Detecting and Measuring NaV Inhibition Properties
Sodium ion channels are voltage-dependent proteins that can be activated by inducing membrane voltage changes by applying electric fields. The electrical stimulation instrument and methods of use, referred to as E-VIPR, are described in International Publication No. WO 2002/008748 A3 and C.-J. Huang et al. Characterization of voltage-gated sodium channel blockers by electrical stimulation and fluorescence detection of membrane potential, 24 Nature Biotech. 439-46 (2006), both of which are incorporated by reference in their entirety. The instrument comprises a microtiter plate handler, an optical system for exciting the coumarin dye while simultaneously recording the coumarin and oxonol emissions, a waveform generator, a current- or voltage-controlled amplifier, and parallel electrode pairs that are inserted into assay plate wells. Under integrated computer control, this instrument passes user-programmed electrical stimulus protocols to cells within the wells of the microtiter plate.
16-20 hours prior to running the assay on E-VIPR, HEK cells expressing a truncated form of human NaV 1.8 with full channel activity were seeded into microtiter 384-well plates, pre-coated with matrigel, at a density of 25,000 cells per well. 2.5-5% KIR2.1 Bacmam virus was added to the final cell suspension before seeding into cell plates. HEK cells were grown in Dulbecco's Modified Eagle's Medium (DMEM) supplemented with 10% FBS (Fetal Bovine Serum, qualified; Sigma #F4135), 1% NEAA (Non-Essential Amino Acids, Gibco #11140), 1% HEPES (Gibco #15630), 1% Pen-Strep (Penicillin-Streptomycin; Gibco #15140) and 5 μg/ml Blasticidin (Gibco #R210-01). Cells were expanded in vented cap cell culture flasks, with 90-95% humidity and 5% CO2.
2.5-5% KIR 2.1 Bacmam virus (produced in-house), prepared as described in Section 3.3 of J. A. Fornwald et al., Gene Expression in Mammalian Cells Using BacMam, a Modified Baculovirus System, 1350 Methods in Molecular Biology 95-116 (2016), the entire contents of which are incorporated by reference. The concentration used can be dependent on viral titer of each batch.
5 mM DiSBAC6(3), a voltage sensitive oxonol acceptor (CAS number 169211-44-3; 5-[3-(1,3-dihexylhexahydro-4,6-dioxo-2-thioxo-5-pyrimidinyl)-2-propen-1-ylidene]-1,3-dihexyldihydro-2-thioxo-4,6(1H,5H)-pyrimidinedione), in dry DMSO. The preparation of DiSBAC6(3) is analogous to that of DiSBAC4(3) as described in Voltage Sensing by Fluorescence Resonance Energy Transfer in Single Cells, Gonzalez, J. E. and Tsien, R. Y. (1995) Biophys. J. 69, 1272-1280.
5 mM CC2-DMPE, a commercially available membrane-bound coumarin phospholipid FRET donor (ThermoFisher Scientific catalog number K1017, CAS number 393782-57-5; tetradecanoic acid, 1,1′-[(1R)-1-[8-(6-chloro-7-hydroxy-2-oxo-2H-1-benzopyran-3-yl)-3-hydroxy-3-oxido-8-oxo-2,4-dioxa-7-aza-3-phosphaoct-1-yl]-1,2-ethanediyl] ester) was prepared in dry DMSO. See also, Improved indicators of cell membrane potential that use fluorescence resonance energy transfer, Gonzalez, J. E. and Tsien, R. Y. (1997) Chem. Biol. 4, 269-277.
Voltage Assay Background Suppression Compound (VABSC-1) is prepared in H2O (89-363 mM, range used to maintain solubility)
Human Serum (HS, Millipore #S1P1-01KL, or Sigma SLBR5469V and SLBR5470V as a 50%/50% mixture, for 25% assay final concentration)
• Sodium Chloride 160 mM (9.35 g/L), Potassium Chloride, 4.5 mM (0.335 g/L), Glucose • 10 mM (1.8 g/L), Magnesium Chloride (Anhydrous) 1 mM (0.095 g/L), Calcium • Chloride 2 mM (0.222 g/L), HEPES 10 mM (2.38 g/L) in water.
• Sodium Chloride 96 mM (5.61 g/L), Potassium Chloride 4.5 mM (0.335 g/L), • Tetramethylammonium (TMA)-Cl 64 mM (7.01 g/L), Glucose 10 mM (1.8 g/L), • Magnesium Chloride (Anhydrous) 1 mM (0.095 g/L), Calcium Chloride 2 mM (0.222 • g/L) HEPES 10 mM (2.38 g/L) in water. […]

Sequence of human NaV 1.8 (Q9Y5Y9 126-1722 limits assumed): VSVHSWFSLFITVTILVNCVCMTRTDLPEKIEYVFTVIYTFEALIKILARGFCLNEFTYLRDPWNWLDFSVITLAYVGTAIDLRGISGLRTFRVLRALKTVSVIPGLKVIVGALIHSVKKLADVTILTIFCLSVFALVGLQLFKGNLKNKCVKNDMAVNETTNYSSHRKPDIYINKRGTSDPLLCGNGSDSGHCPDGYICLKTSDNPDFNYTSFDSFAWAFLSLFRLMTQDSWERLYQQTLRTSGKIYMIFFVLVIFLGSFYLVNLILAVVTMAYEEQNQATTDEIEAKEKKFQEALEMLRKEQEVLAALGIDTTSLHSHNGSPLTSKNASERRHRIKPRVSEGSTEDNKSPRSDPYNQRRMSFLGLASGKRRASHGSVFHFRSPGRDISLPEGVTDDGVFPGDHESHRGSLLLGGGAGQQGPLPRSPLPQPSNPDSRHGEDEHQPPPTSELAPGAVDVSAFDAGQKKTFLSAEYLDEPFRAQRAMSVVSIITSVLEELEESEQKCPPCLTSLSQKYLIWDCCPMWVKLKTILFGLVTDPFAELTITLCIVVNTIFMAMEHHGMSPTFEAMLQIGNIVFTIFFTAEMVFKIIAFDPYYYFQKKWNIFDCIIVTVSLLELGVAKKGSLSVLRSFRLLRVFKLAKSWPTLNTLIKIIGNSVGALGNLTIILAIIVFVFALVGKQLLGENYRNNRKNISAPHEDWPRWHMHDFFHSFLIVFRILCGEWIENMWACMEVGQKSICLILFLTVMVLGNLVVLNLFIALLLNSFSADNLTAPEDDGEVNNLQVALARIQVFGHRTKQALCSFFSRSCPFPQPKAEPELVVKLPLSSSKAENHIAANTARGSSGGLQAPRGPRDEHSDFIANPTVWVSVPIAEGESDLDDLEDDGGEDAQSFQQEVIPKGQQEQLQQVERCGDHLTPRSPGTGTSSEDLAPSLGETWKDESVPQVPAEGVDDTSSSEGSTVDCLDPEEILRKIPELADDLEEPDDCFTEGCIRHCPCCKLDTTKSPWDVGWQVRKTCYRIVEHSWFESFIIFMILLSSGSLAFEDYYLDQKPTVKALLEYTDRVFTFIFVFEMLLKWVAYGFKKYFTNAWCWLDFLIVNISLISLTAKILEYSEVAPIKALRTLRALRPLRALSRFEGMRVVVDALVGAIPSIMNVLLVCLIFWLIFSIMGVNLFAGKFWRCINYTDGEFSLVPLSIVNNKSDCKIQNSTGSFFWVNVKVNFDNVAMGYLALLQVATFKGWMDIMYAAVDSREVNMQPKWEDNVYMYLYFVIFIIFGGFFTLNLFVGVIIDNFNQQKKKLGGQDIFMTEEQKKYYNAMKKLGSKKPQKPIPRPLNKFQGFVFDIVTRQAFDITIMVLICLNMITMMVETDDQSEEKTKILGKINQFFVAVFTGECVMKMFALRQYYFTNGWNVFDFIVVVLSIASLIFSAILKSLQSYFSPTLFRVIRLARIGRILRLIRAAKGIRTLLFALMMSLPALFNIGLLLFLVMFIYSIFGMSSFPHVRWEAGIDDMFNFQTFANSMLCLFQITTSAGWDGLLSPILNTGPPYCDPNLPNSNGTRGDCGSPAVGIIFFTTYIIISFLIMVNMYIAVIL

As to `C[C@H]1[C@@H](c2ccc(F)c(F)c2OCC2COC2)[C@H](C(=O)Nc2ccc(CO)nc2)O[C@@]1(C)C(F)(F)F` [Compound 24, (2R,3S,4S,5R)-3-(3,4-difluoro-2-(oxetan-3-ylmethoxy)phenyl)-N-(6-(hydroxymethyl)pyridin-3-yl)-4,5-dimethyl-5-(trifluoromethyl)tetrahydrofuran-2-carboxamide], the 50% inhibitory concentration (IC50) fell in the range of 10 to 100 nM. As to `C[C@H]1[C@@H](c2ccc(F)c(F)c2OCCN2CCOCC2)[C@H](C(=O)Nc2ccc(CO)nc2)O[C@@]1(C)C(F)(F)F` [Compound 25, (2R,3S,4S,5R)-3-(3,4-difluoro-2-(2-morpholinoethoxy)phenyl)-N-(6-(hydroxymethyl)pyridin-3-yl)-4,5-dimethyl-5-(trifluoromethyl)tetrahydrofuran-2-carboxamide], the IC50 is 10 to 100 nM.

Turning to `C[C@H]1[C@@H](c2ccc(F)c(F)c2OCCN2C[C@H]3COC[C@H]3C2)[C@H](C(=O)Nc2cnc(CO)nc2)O[C@@]1(C)C(F)(F)F` [Compound 26, (2R,3S,4S,5R)-3-(3,4-difluoro-2-(2-((3aR,6aS)-tetrahydro-1H-furo[3,4-c]pyrrol-5(3H)-yl)ethoxy)phenyl)-N-(2-(hydroxymethyl)pyrimidin-5-yl)-4,5-dimethyl-5-(trifluoromethyl)tetrahydrofuran-2-carboxamide], the concentration for half-maximal inhibition (IC50) is 100 to 1000 nM.

The values above are taken from patent publication US20240400544A1, “N-(HYDROXYALKYL (HETERO)ARYL) TETRAHYDROFURAN CARBOXAMIDE ANALOGS AS MODULATORS OF SODIUM CHANNELS” (VERTEX PHARMACEUTICALS INCORPORATED, priority 2021, published 2024).
